Reference: US8334316B2, “Substituted organosulfur compounds and methods of using thereof” (ACEA Biosciences, Inc., priority 2004, dated 2012)
Values joined by “and” are separate entries in the source; they are usually repeats but may differ in a detail not shown here. Equal entries are not always repeated.

Legend:
[1] = tested on: purified bovine brain tubulin; test: In vitro microtubule dynamics (dynamic instability) assay, video microscopy; type: biochemical
Description: Tubulin Purification and Microtubule Dynamics Assays. Tubulin was purified, as described in the literature (“Kinetic stabilization of microtubule dynamic instability in vitro by vinblastine”, Toso, R. J., Jordan, […]., Matsumoto, B. and Wilson, L., Biochemistry, 1993, 32, 1285-1293). Briefly, microtubule-associated protein-rich bovine brain microtubule protein was prepared by three cycles of assembly and disassembly. Tubulin was purified from other microtubule proteins by elution through a Whatman P-11 phosphocellulose column equilibrated in PEM50 (50 mM Pipes, 1 mM MgSO4, 1 mM EGTA, 0.1 mM GTP). Purified tubulin (>99% pure) was drop-frozen in liquid nitrogen and stored at -70° C. […] The dynamics of individual microtubules were recorded at 37° C. using differential interference contrast enhanced video microscopy. The ends were designated as plus or minus on the basis of the growth rate, the number of microtubules that grew at opposite ends of the seeds, and the relative lengths of the microtubules (Panda, D., Goode, […]. and Wilson, L., Kinetic stabilization of microtubule dynamics at steady state by tau and microtubule-binding domains of tau, Biochemistry, 1995, 34, 11117-11127; Walker, R. A., O'Brien, […]., Voter, W. A., Erickson, H. P. and Salmon, E. D., Dynamic instability of individual microtubules analyzed by video light microscopy: rate constants and transition frequencies, J. Cell Biol. 1988, 107, 1437-1448). Plus ends were analyzed for 10 minutes per slide during the steady-state phase of polymerization ( 45 min after initiation of polymerization). Life histories of individual microtubules were collected as described by Panda et al. 1995 (Panda, D., Goode, […]. and Wilson, L., Kinetic stabilization of microtubule dynamics at steady state by tau and microtubule-binding domains of tau, Biochemistry, 1995, 34 11117-11127) with modifications. Data points were collected at 1-3 s intervals. […] Average rates, lengths and durations are the averages of independent events. The catastrophe frequency was calculated by dividing the number of shortening events by the total time of growth and attenuation tracked, and rescue frequency was calculated by dividing the number of rescue events by the total time of shortening tracked. To control for experimental error, each condition was filmed over multiple days using at least two distinct tubulin/GTP mixtures (2-3 slides each). No gross variation in microtubule dynamics was observed between mixtures or slides of a given condition. The concentration of drug used in dynamic instability assays was chosen by initially observing microtubules stabilized with half the concentration used in microtubule assembly assays.

[2] = tested on: P388 lymphocytic leukemia; test: Murine P388 lymphocytic leukemia model (intraperitoneal transplantation), life span; type: in vivo, mouse; details: for Average life span X ± SD: observed within 30 days; for Life span ratio %: vs solvent control
Description: Both male and female mice were used.
Preparation and Administration of Test Compounds.
To prepare cancer cells for the P388 murine lymphocytic leukemia model, ascites of a P388 leukemia-bearing mouse were removed under sterile condition. The ascites were diluted in normal saline (1:6 for ascites to normal saline) to prepare cell suspension. 0.2 mL of the cell suspension was then injected intraperitoneally. […] The life span of carrier mice was determined within 30 days. The life span ratio comparing to the negative control group of the carrier mice in each compound treatment group was calculated according to the formula: Life span ratio %=average life span for the compound treatment group/average life span for the negative control group×100% (4)

[3] = tested on: ao10/17 human ovarian cancer; test: ao10/17 human ovarian cancer xenograft in nude mice (Example 4); type: in vivo; details: for tumor inhibition rate %: vs solvent control
Description: Only female mice were used in this study. […] The high, middle and low doses of ACEA100108 were 50, […] and 8 mg/kg/d, respectively.
Preparation and Administration of Test Compounds. […] The high, middle and low dose of compound ACEA100108 was 50, 20 and 8 mg/kg, respectively.
The tumor tissues were grounded in normal saline (1:6 for tumor volume to saline volume) and tumor cell suspensions were prepared in the normal saline.
For the human ovarian cancer xenograft model, all used materials, including animal food, animal cage, supporting materials and apparatus contacted by animals, were high-pressure sterilized. Nude mice were maintained in laminar flow shelves under SPF condition. After tumor transplantation, mouse weight and tumor size in each compound dosage group were dynamically monitored and plotted. The tumor size was determined by measuring the major axis (a) and minor axis (b) of the tumor, and tumor volume was calculated according to the equation (3) in Example 3.

mouse Lewis lung cancer = test: In vivo antitumor efficacy, mouse Lewis lung cancer model, Example 3 (ACEA100108); details: for Inhibition rate (%): vs solvent control
Description: For human tumor xenograft models, cancer cells were passed twice in vivo before being transplanted into the nude mice for the study. Cultured human cancer cells in flask were first xenograft-transplanted in immunodeficient nude mice. After the cancer cells grew to a tumor of certain sizes in the nude mice, the tumor was removed form the nude mice and tumor tissues were dissected. The cell suspensions were prepared from the dissected tumor tissue and transplanted back to immunodeficient nude mice again (i.e. the second passage of cancer cells in human cancer xenograft-transplanted model). After the cancer cells grew to certain size, the tumor was removed from nude mice and the tumor tissues were dissected. The cell suspensions were prepared from dissected tissues and were used for the study of human cancer xenograft models described here.
Both male and female mice were used. However, for each experiment, animals of same sex were used. For the mouse transplanted tumor model, the numbers of animals tested were as follows: 10 for each dose group, 10 for positive control group and 20 for negative control group. For human tumor xenograft model, the numbers of animals tested were as follows: 6 for each dose group, 6 for positive control group and 12 for negative control group.
Test control. For negative control, each mouse was administered intravenously with the solvent only having the same volume and same concentration as those used in high dose ACEA100108 test, once a day, for 7 consecutive days. […] In a reference group, DBTS was administered intravenously at 50 mg/kg, once a day for 7 consecutive days.
Preparation and Administration of Test Compounds. […] Each time before use, this solution was diluted in normal saline to achieve desired ACEA100108 concentrations. Each mouse (about 20 g in weight) was administered intravenously with the compound solution of 0.5 mL at a controlled injection speed of 0.5 ml/0.5 min. 24 hrs after the tumor transplantation, intravenous injections of compound solutions into carrier mice were performed once a day, for consecutive 7 or 10 days.
Preparation of Tumor Cells for Transplantation and Determination of Compound Efficacy. To prepare the cancer cells for mouse Lewis lung cancer model, human breast cancer xenograft model and human colon cancer xenograft model, the fast growing tumors were first removed from the transplanted tumor mice. The tumor tissues were dissected and tumor cell suspensions were prepared in normal saline to have a concentration of 2-4×10^7 cells/ml. 0.2 ml of cell suspension was subcutaneously injected into the axillary region (right-side) of each mouse. […] Between two and four weeks after transplantation, mice were sacrificed and the transplanted tumors were removed from experimental mice.

[4] = 8 mg/kg iv x7 qd, 7 D after transplantation
[5] = 20 mg/kg iv x7 qd, 7 D after transplantation
[6] = 50 mg/kg iv x7 qd, 7 D after transplantation
[7] = shortening events, ACEA100108 .2uM

## Cc1cccc(CSSSCc2cccc(C)c2)c1 [ACEA100116, di(m-methylbenzyl)trisulfide]
[1]; plus ends, steady state
  Effect on length of growth events: little effect upon the length of growing events
  Effect on length of shortening events: strong effect upon the length of shortening events
  Effect on microtubule growth rate: increased the growth rate
  Effect on rate of shortening: no effect upon the rate of shortening

## CC(=O)O[C@H]1C(=O)[C@@]2(C)[C@H]([C@H](OC(=O)c3ccccc3)[C@]3(O)C[C@H](OC(=O)[C@H](O)[C@@H](NC(=O)c4ccccc4)c4ccccc4)C(C)=C1C3(C)C)[C@]1(OC(C)=O)CO[C@@H]1C[C@@H]2O [Taxol, paclitaxel, reference compound]
[2]; 10 mg/kg/d iv x7 qd
  animal No. beginning/end (survivors): 10/0
  Average life span X ± SD: 10.5 ± 1.18
[3]; 10 mg/kg iv x7 qd, 7 D after transplantation
  Tumor volume (cm^3): 0.01 cm^3
[3]; 10 mg/kg iv x7 qd, 14 d
  Tumor volume (cm^3): 0.033 ± 0.02 cm^3
[3]; 10 mg/kg iv x7 qd, 21 d
  Tumor volume (cm^3): 0.196 ± 0.03 cm^3
[3]; 10 mg/kg iv x7 qd, 24 d
  Tumor volume (cm^3): 0.349 ± 0.08 cm^3
[3]; 10 mg/kg/d iv x7 qd
  Tumor weight: 0.77 ± 0.12 g
  tumor inhibition rate %: 45.39%
Mouse Lewis lung cancer; 10 mg/kg/d iv x7 qd
  Animal weight (g) beginning: 20.4 g
  Animal weight (g) end: 23.8 g
  Tumor weight: 1.52 ± 0.15 g
  Inhibition rate (%): 43.91%

## Fc1ccc(CSSSCc2ccc(F)cc2)cc1 [ACEA100108, Di(p-fluorobenzyl)trisulfide]
[2]; 12.5 mg/kg/d iv x7 qd
  animal No. beginning/end (survivors): 10/0
  Average life span X ± SD: 10.6 ± 0.84
  Life span ratio %: 109.28%
[2]; 25 mg/kg/d iv x7 qd
  animal No. beginning/end (survivors): 10/0
  Average life span X ± SD: 10.4 ± 1.17
  Life span ratio %: 107.22%
[2]; 50 mg/kg/d iv x7 qd
  animal No. beginning/end (survivors): 10/0
  Average life span X ± SD: 10.3 ± 0.95
  Life span ratio %: 106.18%
[2]; 50, 25, 12.5 mg/kg iv x7 qd
  Anticancer effect on P388 mouse leukemia model: did not exhibit anticancer effect
[3]; 8 mg/kg iv x7 qd, 0 d (beginning)
  Body weight of mice: 17.7 g and 17.7 ± 0.5 g
[3]; [4]
  Mice with palpable tumor / total mice: 3/6
  Tumor volume (cm^3): 0.01 cm^3
[3]; 8 mg/kg iv x7 qd, 7 d
  Body weight of mice: 19 ± 0.6 g
[3]; 8 mg/kg iv x7 qd, 14 d
  Body weight of mice: 20.5 ± 1 g
  Tumor volume (cm^3): 0.048 ± 0.03 cm^3
[3]; 8 mg/kg iv x7 qd, 21 d
  Body weight of mice: 21.2 ± 0.8 g
  Tumor volume (cm^3): 0.249 ± 0.05 cm^3
[3]; 8 mg/kg iv x7 qd, 24 d
  Tumor volume (cm^3): 0.89 ± 0.39 cm^3
[3]; 8 mg/kg iv x7 qd, 24 d (end)
  Body weight of mice: 22.2 g and 22.2 ± 0.8 g
[3]; 8 mg/kg/d iv x7 qd
  Tumor weight: 0.942 ± 0.14 g
  tumor inhibition rate %: 33.19%
[3]; [5]
  Mice with palpable tumor / total mice: 2/6
  Tumor volume (cm^3): 0.01 cm^3
[3]; 20 mg/kg iv x7 qd, 7 d
  Body weight of mice: 18.3 ± 0.8 g
[3]; 20 mg/kg iv x7 qd, 14 d
  Body weight of mice: 19.8 ± 0.8 g
  Tumor volume (cm^3): 0.03 ± 0.02 cm^3
[3]; 20 mg/kg iv x7 qd, 21 d
  Body weight of mice: 20.5 ± 1 g
  Tumor volume (cm^3): 0.206 ± 0.03 cm^3
[3]; 20 mg/kg iv x7 qd, 24 d
  Tumor volume (cm^3): 0.402 ± 0.1 cm^3
[3]; 20 mg/kg iv x7 qd, 24 d (end)
  Body weight of mice: 22.0 g and 22.0 ± 1.4 g
[3]; 20 mg/kg/d iv x7 qd
  Tumor weight: 0.752 ± 0.12 g
  tumor inhibition rate %: 46.67%
[3]; 50 mg/kg iv x7 qd, 0 d (beginning)
  Body weight of mice: 17.2 g and 17.2 ± 0.8 g
[3]; [6]
  Mice with palpable tumor / total mice: 1/6
  Tumor volume (cm^3): 0.01 cm^3
[3]; 50 mg/kg iv x7 qd, 7 d
  Body weight of mice: 16.7 ± 0.8 g
[3]; 50 mg/kg iv x7 qd, 14 d
  Body weight of mice: 17.8 ± 1.5 g
  Mice with palpable tumor / total mice: 6/6
  Tumor volume (cm^3): 0.01 cm^3
[3]; 50 mg/kg iv x7 qd, 21 d
  Body weight of mice: 19.3 ± 1 g
  Tumor volume (cm^3): 0.148 ± 0.02 cm^3
[3]; 50 mg/kg iv x7 qd, 24 d
  Tumor volume (cm^3): 0.316 ± 0.06 cm^3
[3]; 50 mg/kg iv x7 qd, 24 d (end)
  Body weight of mice: 21.3 g and 21.3 ± 1.2 g
[3]; 50 mg/kg/d iv x7 qd
  Tumor weight: 0.657 ± 0.13 g
  tumor inhibition rate %: 53.40%
[1]; ACEA100108 .2uM
  % time spent in attenuation phase: 69%
  % time spent in growth phase: 30%
  % time spent in shortening phase: 1%
  Dynamicity: 0.83 um/min
  Frequency of transitions ± SD: Catastrophes: 0.09 ± 0.03 events/min
  Frequency of transitions ± SD: Rescues: 9.4 ± 3.0 events/min
  Frequency of transitions ± SD: Total: 0.32 ± 0.06 events/min
  Growth Rate ± SEM: 1.59 ± 0.1 um/min
  Mean duration of attenuation ± SEM: 3.74 ± 0.7
  Shortening Rate ± SEM: 35.8 ± 4.3 um/min
[1]; growth events, ACEA100108 .2uM
  Duration of Event: 2.04 ± 0.3 min
  Length of Excursion: 3.24 ± 0.3 um
[1]; plus ends, steady state
  Effect on duration of growth events: increased the duration of growth events
  Effect on length of growth events: increased the duration of growth events and the average length of growth events
  Effect on length of shortening events: strong effect upon the length of shortening events
[1]; [7]
  Duration of Event: 0.11 ± 0.02 min
  Length of Excursion: 3.79 ± 0.3 um
Mouse Lewis lung cancer; 6.25 mg/kg/d iv x7 qd
  Animal No. beginning/end (survival): 10/10
  Animal weight (g) beginning: 20.3 g
  Animal weight (g) end: 24.4 g
  Tumor weight: 1.78 ± 0.24 g
  Inhibition rate (%): 34.32%
Mouse Lewis lung cancer; 25 mg/kg/d iv x7 qd
  Animal No. beginning/end (survival): 10/10
  Animal weight (g) beginning: 20.1 g
  Animal weight (g) end: 24.2 g
  Tumor weight: 1.21 ± 0.22 g
  Inhibition rate (%): 55.35%
Mouse Lewis lung cancer; 100 mg/kg/d iv x7 qd
  Animal No. beginning/end (survival): 10/8
  Animal weight (g) beginning: 20.6 g
  Animal weight (g) end: 23.4 g
Mouse Lewis lung cancer; 100 mg/kg/d iv x7 qd (text: administered only 5 times because of toxicity)
  Tumor weight: 1.08 ± 0.17 g
Mouse Lewis lung cancer; 100 mg/kg/d iv x7 qd (text: only 5 times because of toxicity)
  Inhibition rate (%): 60.15%
